{"source": "ChEMBL document CHEMBL3044865", "about": "“Herbicidal Activity and Characteristics of Pyraflufen-ethyl for Controlling Broad-leaved Weeds in Cereals” (J Pestic Sci, 2002)", "key": {"Galium aparine [1]": {"test_system": "Galium aparine", "assay": "Herbicidal activity against Galium aparine assessed as killing at 3 g/ha post emergence application measured after 21 days after treatment", "assay_type": "functional"}, "Hordeum vulgare [2]": {"test_system": "Hordeum vulgare", "assay": "Phytotoxicity in Hordeum vulgare (barley) assessed as injury at 0.3 g/ha post emergence application measured after 21 days after treatment", "assay_type": "organism-based", "settings": "in vivo, other, 504 h"}, "Viola arvensis [3]": {"test_system": "Viola arvensis", "assay": "Herbicidal activity against Viola arvensis assessed as killing at 100 g/ha post emergence application measured after 21 days after treatment", "assay_type": "functional"}, "[4]": {"target": "T1, Protoporphyrinogen oxidase, chloroplastic (Nicotiana tabacum) (UniProt O24163)", "T1 sequence (whole entry)": "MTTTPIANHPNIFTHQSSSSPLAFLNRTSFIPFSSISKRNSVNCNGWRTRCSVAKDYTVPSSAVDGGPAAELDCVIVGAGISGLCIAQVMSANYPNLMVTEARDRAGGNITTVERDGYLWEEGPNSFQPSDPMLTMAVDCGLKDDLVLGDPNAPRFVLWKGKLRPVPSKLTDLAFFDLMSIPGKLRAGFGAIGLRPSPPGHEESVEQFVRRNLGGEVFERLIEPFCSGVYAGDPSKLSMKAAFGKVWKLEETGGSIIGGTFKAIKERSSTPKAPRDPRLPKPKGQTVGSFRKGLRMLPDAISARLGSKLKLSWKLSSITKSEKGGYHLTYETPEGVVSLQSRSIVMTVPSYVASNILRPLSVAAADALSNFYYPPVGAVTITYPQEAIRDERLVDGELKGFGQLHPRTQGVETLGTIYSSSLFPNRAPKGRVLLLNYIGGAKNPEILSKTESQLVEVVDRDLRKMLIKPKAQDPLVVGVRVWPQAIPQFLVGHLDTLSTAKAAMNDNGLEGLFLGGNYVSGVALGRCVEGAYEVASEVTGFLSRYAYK", "assay": "Inhibition of Veronica hederaefolia protoporphyrinogen oxidase by post-emergence herbicidal activity assay", "settings": "Veronica hederifolia"}, "Triticum aestivum [5]": {"test_system": "Triticum aestivum", "assay": "Phytotoxicity in Triticum aestivum (wheat) assessed as injury at 3 g/ha post emergence application measured after 21 days after treatment", "assay_type": "organism-based", "settings": "in vivo, other, 504 h"}, "Viola arvensis [6]": {"test_system": "Viola arvensis", "assay": "Herbicidal activity against Viola arvensis assessed as killing at 5 g/ha measured after 21 days after treatment under greenhouse by time-course analysis", "assay_type": "functional"}, "Stellaria media [7]": {"test_system": "Stellaria media", "assay": "Herbicidal activity against Stellaria media assessed as killing at 10 g/ha post emergence application measured after 21 days after treatment", "assay_type": "functional"}, "Stellaria media [8]": {"test_system": "Stellaria media", "assay": "Herbicidal activity against Stellaria media assessed as killing at 100 g/ha post emergence application measured after 21 days after treatment", "assay_type": "functional"}, "Alopecurus myosuroides [9]": {"test_system": "Alopecurus myosuroides", "assay": "Herbicidal activity against Alopecurus myosuroides assessed as killing at 100 g/ha post emergence application measured after 21 days after treatment", "assay_type": "functional, organism-based"}, "Veronica hederifolia [10]": {"test_system": "Veronica hederifolia", "assay": "Herbicidal activity against Veronica hederaefolia assessed as killing at 30 g/ha post emergence application measured after 21 days after treatment", "assay_type": "functional"}, "Stellaria media [11]": {"test_system": "Stellaria media", "assay": "Herbicidal activity against Stellaria media assessed as killing at 10 g/ha pre emergence application measured after 21 days after treatment", "assay_type": "functional"}, "Stellaria media [12]": {"test_system": "Stellaria media", "assay": "Herbicidal activity against Stellaria media assessed as killing at 3 g/ha post emergence application measured after 21 days after treatment", "assay_type": "functional"}, "Alopecurus myosuroides [13]": {"test_system": "Alopecurus myosuroides", "assay": "Herbicidal activity against Alopecurus myosuroides assessed as killing at 300 g/ha post emergence application measured after 21 days after treatment", "assay_type": "functional"}, "[14]": {"target": "T2, Protoporphyrinogen oxidase 2 (Spinacia oleracea) (UniProt Q94IG7)", "T2 sequence (whole entry)": "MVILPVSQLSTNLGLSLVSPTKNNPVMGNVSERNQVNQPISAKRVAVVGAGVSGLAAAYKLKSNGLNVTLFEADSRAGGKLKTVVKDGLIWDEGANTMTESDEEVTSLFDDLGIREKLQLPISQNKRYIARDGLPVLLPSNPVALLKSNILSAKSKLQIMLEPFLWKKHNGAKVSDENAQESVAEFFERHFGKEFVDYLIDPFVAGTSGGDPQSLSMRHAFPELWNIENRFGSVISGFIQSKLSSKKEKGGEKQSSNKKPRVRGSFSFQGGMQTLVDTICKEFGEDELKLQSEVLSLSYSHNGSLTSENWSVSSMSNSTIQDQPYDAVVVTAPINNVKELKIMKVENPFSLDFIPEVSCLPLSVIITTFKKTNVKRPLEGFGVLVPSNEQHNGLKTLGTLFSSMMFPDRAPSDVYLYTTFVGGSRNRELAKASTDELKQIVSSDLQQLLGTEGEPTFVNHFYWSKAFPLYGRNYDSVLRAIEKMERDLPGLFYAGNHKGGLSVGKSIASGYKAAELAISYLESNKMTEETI", "assay": "Inhibition of Stellaria media protoporphyinogen oxidase assessed as herbicidal activity at 0.3 g/ha measured after 21 days after treatment under greenhouse by time-course analysis", "set-up": "scale not given: the % may be the effect or the level left"}, "Veronica hederifolia [15]": {"test_system": "Veronica hederifolia", "assay": "Herbicidal activity against Veronica hederaefolia assessed as killing at 10 g/ha post emergence application measured after 21 days after treatment", "assay_type": "functional"}, "Alopecurus myosuroides [16]": {"test_system": "Alopecurus myosuroides", "assay": "Herbicidal activity against Alopecurus myosuroides assessed as killing at 10 g/ha post emergence application measured after 21 days after treatment", "assay_type": "functional"}, "[17]": {"target": "T2, Protoporphyrinogen oxidase 2 (Spinacia oleracea)", "assay": "Inhibition of Stellaria media protoporphyrinogen oxidase by post-emergence herbicidal activity assay"}, "Hordeum vulgare [18]": {"test_system": "Hordeum vulgare", "assay": "Phytotoxicity in Hordeum vulgare (barley) assessed as injury at 100 g/ha pre emergence application measured after 21 days after treatment", "assay_type": "organism-based", "settings": "in vivo, other, 504 h"}, "Galium aparine [19]": {"test_system": "Galium aparine", "assay": "Herbicidal activity against Galium aparine assessed as killing at 10 g/ha pre emergence application measured after 21 days after treatment", "assay_type": "functional"}, "Hordeum vulgare [20]": {"test_system": "Hordeum vulgare", "assay": "Phytotoxicity in Hordeum vulgare (barley) assessed as injury at 1 g/ha post emergence application measured after 21 days after treatment", "assay_type": "organism-based", "settings": "in vivo, other, 504 h"}, "Triticum aestivum [21]": {"test_system": "Triticum aestivum", "assay": "Phytotoxicity in Triticum aestivum (wheat) assessed as injury at 10 g/ha post emergence application measured after 21 days after treatment", "assay_type": "organism-based", "settings": "in vivo, other, 504 h"}, "Avena fatua [22]": {"test_system": "Avena fatua", "assay": "Herbicidal activity against Avena fatua assessed as killing at 3 g/ha post emergence application measured after 21 days after treatment", "assay_type": "functional"}, "Hordeum vulgare [23]": {"test_system": "Hordeum vulgare", "assay": "Phytotoxicity in Hordeum vulgare (barley) assessed as injury at 300 g/ha pre emergence application measured after 21 days after treatment", "assay_type": "organism-based", "settings": "in vivo, other, 504 h"}, "Viola arvensis [24]": {"test_system": "Viola arvensis", "assay": "Ratio of compound ED90 to necoprop-p ED90 for herbicidal activity against Viola arvensis"}, "[25]": {"target": "T1, Protoporphyrinogen oxidase, chloroplastic (Nicotiana tabacum)", "assay": "Inhibition of Galium aparine protoporphyrinogen oxidase by post-emergence herbicidal activity assay"}, "Galium aparine [26]": {"test_system": "Galium aparine", "assay": "Herbicidal activity against Galium aparine assessed as killing at 12 g/ha measured after 21 days after treatment by time-course analysis", "assay_type": "functional"}, "Alopecurus myosuroides [27]": {"test_system": "Alopecurus myosuroides", "assay": "Herbicidal activity against Alopecurus myosuroides assessed as killing at 3 g/ha post emergence application measured after 21 days after treatment", "assay_type": "functional"}, "Stellaria media [28]": {"test_system": "Stellaria media", "assay": "Herbicidal activity against Stellaria media assessed as killing at 300 g/ha post emergence application measured after 21 days after treatment", "assay_type": "functional"}, "Avena fatua [29]": {"test_system": "Avena fatua", "assay": "Herbicidal activity against Avena fatua assessed as killing at 10 g/ha post emergence application measured after 21 days after treatment", "assay_type": "functional"}, "Triticum aestivum [30]": {"test_system": "Triticum aestivum", "assay": "Phytotoxicity in Triticum aestivum (wheat) assessed as injury at 300 g/ha pre emergence application measured after 21 days after treatment", "assay_type": "organism-based", "settings": "in vivo, other, 504 h"}, "Hordeum vulgare [31]": {"test_system": "Hordeum vulgare", "assay": "Phytotoxicity in Hordeum vulgare (barley) assessed as injury at 10 g/ha post emergence application measured after 21 days after treatment", "assay_type": "organism-based", "settings": "in vivo, other, 504 h"}, "Stellaria media [32]": {"test_system": "Stellaria media", "assay": "Ratio of compound ED90 to ioxynil ED90 for herbicidal activity against Stellaria media"}, "Veronica hederifolia [33]": {"test_system": "Veronica hederifolia", "assay": "Herbicidal activity against Veronica hederaefolia assessed as killing at 0.3 g/ha post emergence application measured after 21 days after treatment", "assay_type": "functional"}}, "note": "Active and inactive are the calls of the source. The calls are words filed in the database; no cut-off is given here."}
{"smiles": "CCOC(=O)COc1cc(-c2nn(C)c(OC(F)F)c2Cl)c(F)cc1Cl", "note": "[PYRAFLUFEN-ETHYL]", "values": [{"measurement": "Activity", "setting": "Galium aparine [1]", "result": 100, "unit": "%"}, {"measurement": "Activity", "setting": "Hordeum vulgare [2]", "result": "Non-toxic"}, {"measurement": "Activity", "setting": "Viola arvensis [3]", "result": 40, "unit": "%"}, {"measurement": "ED90", "setting": "[4]", "result": 1, "unit": "gAi/ha"}, {"measurement": "Activity", "setting": "Triticum aestivum [5]", "result": 1, "unit": "%"}, {"measurement": "Activity", "setting": "Viola arvensis [6]", "result": 90, "unit": "%"}, {"measurement": "Activity", "setting": "Stellaria media [7]", "result": 100, "unit": "%"}, {"measurement": "Activity", "setting": "Stellaria media [8]", "result": 90, "unit": "%"}, {"measurement": "Activity", "setting": "Alopecurus myosuroides [9]", "result": "inactive"}, {"measurement": "Activity", "setting": "Veronica hederifolia [10]", "result": 11, "unit": "%"}, {"measurement": "Activity", "setting": "Stellaria media [11]", "result": 21, "unit": "%"}, {"measurement": "Activity", "setting": "Stellaria media [12]", "result": 100, "unit": "%"}, {"measurement": "Activity", "setting": "Alopecurus myosuroides [13]", "result": 1, "unit": "%"}, {"measurement": "Activity", "setting": "[14]", "result": "> 90", "unit": "%"}, {"measurement": "Activity", "setting": "Veronica hederifolia [15]", "result": 100, "unit": "%"}, {"measurement": "Activity", "setting": "Alopecurus myosuroides [16]", "result": 11, "unit": "%"}, {"measurement": "ED90", "setting": "[17]", "result": 0.3, "unit": "gAi/ha"}, {"measurement": "Activity", "setting": "Hordeum vulgare [18]", "result": 1, "unit": "%"}, {"measurement": "Activity", "setting": "Galium aparine [19]", "result": 11, "unit": "%"}, {"measurement": "Activity", "setting": "Hordeum vulgare [20]", "result": "Non-toxic"}, {"measurement": "Activity", "setting": "Triticum aestivum [21]", "result": 11, "unit": "%"}, {"measurement": "Activity", "setting": "Avena fatua [22]", "result": 1, "unit": "%"}, {"measurement": "Activity", "setting": "Hordeum vulgare [23]", "result": 21, "unit": "%"}, {"measurement": "Ratio", "setting": "Viola arvensis [24]", "result": 200}, {"measurement": "ED90", "setting": "[25]", "result": 1.5, "unit": "gAi/ha"}, {"measurement": "Activity", "setting": "Galium aparine [26]", "result": ">90", "unit": "%"}, {"measurement": "Activity", "setting": "Alopecurus myosuroides [27]", "result": 1, "unit": "%"}, {"measurement": "Activity", "setting": "Stellaria media [28]", "result": 100, "unit": "%"}, {"measurement": "Activity", "setting": "Avena fatua [29]", "result": 21, "unit": "%"}, {"measurement": "Activity", "setting": "Triticum aestivum [30]", "result": 11, "unit": "%"}, {"measurement": "Activity", "setting": "Hordeum vulgare [31]", "result": 11, "unit": "%"}, {"measurement": "Ratio", "setting": "Stellaria media [32]", "result": 166}, {"measurement": "Activity", "setting": "Veronica hederifolia [33]", "result": 40, "unit": "%"}]}
